Patent US20040023884A1, “Biologically active peptides from functional domains of bactericidal/permeability-increasing protein and uses thereof” (priority 1993, published 2004)
Ends that are not written are not given here.

Key:
[1] = test system: rough mutant E. coli J5 bacteria; assay: Radial diffusion bactericidal assay, E. coli J5; type: cell-based; details: for pmol added to well to achieve a 30 mm^2 bactericidal zone, E. coli J5: radial diffusion, PROBIT analysis, E. coli J5 (rough); for fold reduction in bactericidal activity in the radial diffusion assay: alanine variant vs unsubstituted peptide
In short: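 Log-phase bacteria (3 h at 37 °C in tryptic soy broth), washed in 10 mM sodium phosphate pH 7.4, were embedded at 4×10^6 CFU/mL in underlayer agarose. BPI proteolytic fragments (5 or 10 μL) went into 3 mm wells for 3 h at 37 °C, then agarose overlay and overnight 37 °C growth. Clear zones were measured by micrometer.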

[2] = 3H-heparin binding assay (affinity and capacity); details: for Heparin Capacity: heparin bound at saturation; for Kd: read-out: Heparin Affinity; for HEPCAP (x Fold change in activity): heparin binding capacity
In short: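 Peptide fragments were bound to PVDF-membrane wells and incubated with 3H-heparin in blocking buffer for 1 h at 4 °C. After washing, bound radioactivity was quantified by liquid scintillation counting, with BSA background subtracted; rBPI23 served as positive control.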

E. coli 0113 LPS = assay: Limulus Amoebocyte Lysate (LAL) inhibition assay; type: biochemical
Description: BPI proteolytic fragments produced according to Example 1 were subjected to a Limulus Amoebocyte Lysate (LAL) inhibition assay to determine LPS binding properties of these fragments. Specifically, each of the fragments were mixed in Eppendorf tubes with a fixed concentration of E. coli 0113 LPS (4 ng/mL final concentration) and incubated at 37° C. for 3 hours with occasional shaking. Addition controls comprising rBPI23 at 0.05 μg/mL were also tested. Following incubation, 360 μL of Dulbecco's phosphate buffered saline (D-PBS; Grand Island Biological Co. (GIBCO), Long Island, N.Y.) were added per tube to obtain an LPS concentration of 200 pg/mL for the LAL assay. Each sample was then transferred into Immulon II strips (Dynatech, Chantilly, Va.) in volumes of 50 μl per well.
Limulus amoebocyte Lysate (Quantitative Chromogenic LAL kit, Whitaker Bioproducts, Inc., Walkersville, Md.) was added at 50 μL per well and the wells were incubated at room temperature for 25 minutes. Chromogenic substrate was then added at a volume of 100 μL per well and was well mixed. After incubation for 20 to 30 minutes at room temperature, the reaction was stopped with addition of 100 μL of 25% (v/v) acetic acid. Optical density at 405 nm was then measured in a multiplate reader (Model Vmax, […], Menlo Park, Calif.) with the results shown in FIG. 2 in terms of percent inhibition of LPS. In this Figure, the filled circle represents rBPI23; the open circle represents Asp-N fragment A3; the x represents Asp-N fragment A2, the filled square represents Asp-N fragment A4; the filled triangle represents Asp-N fragment A1A2; the open square represents Asp-N fragment A6a; the small open triangle represents CNBr fragment C3; and the small filled square represents CNBr fragment C1/C5.

[3] = test system: E. coli 0111:B4 (smooth) bacteria; assay: Radial diffusion bactericidal assay, E. coli 0111:B4; type: cell-based; details: radial diffusion; PROBIT analysis; E. coli O111:B4 (smooth)
C. albicans = assay: Radial diffusion fungicidal assay, Candida albicans; type: cell-based; details: radial diffusion
Candida albicans = type: cell-based; details: for MIC (x Fold change in fungicidal activity): alanine variant relative to BPI.13
[4] = alanine variant relative to BPI.13
[5] = alanine variant relative to BPI.2

| Sequence | pmol added to well to achieve a 30 mm^2 bactericidal zone, E. coli J5 [1] | Heparin Capacity [2] [ng] | Kd [2] [nM] | LAL (relative difference) (E. coli 0113 LPS; [4]) | pmol added to well to achieve a 30 mm^2 bactericidal zone, E. coli O111:B4 [3] | C. albicans: pmol required for 30 mm^2 zone (C. albicans) [pmol] | MIC C. alb (Candida albicans) [µg/mL] | MIC (x Fold change in fungicidal activity) (Candida albicans) | LAL / LPS inhibition activity (in words) (E. coli 0113 LPS) | increase of Kd of heparin binding and heparin capacity ([2]; vs unsubstituted peptide) [%] | fold reduction in bactericidal activity in the radial diffusion assay [1] | HEPCAP (x Fold change in activity) ([2]; relative to BPI.2) | LAL (relative difference) (E. coli 0113 LPS; [5]) | activity of position 95 substitution variants (in words) ([1]; activity not further specified) | HEPCAP (x Fold change in activity) ([2]; relative to BPI.13) | decline of Kd of heparin binding ([2]; vs unsubstituted peptide) [fold] |
| --- | --- | --- | --- | --- | --- | --- | --- | --- | --- | --- | --- | --- | --- | --- | --- | --- |
| KSKVGWLAQLFHKK [BPI.38] | 1,698.20 pmol | 194.3 | 579 | = (no difference in the LAL assay) | b (no detectable activity up to 5 μg/well) | 390.65 | 6.25 | = |  |  |  |  |  |  |  |  |
| KSKVGWLIQLFHAK [BPI.43] | 729.40 pmol | 283.9 | 492 | = (no difference in the LAL assay) | 4,872.30 pmol | 784.78 | 12.50 |  |  |  |  |  |  |  |  |  |
| KSKVGWLIQLFHKA [BPI.44] | 480.80 pmol | 335.6 | 579 | = (no difference in the LAL assay) |  | 577.65 | 6.25 | = |  |  |  |  |  |  |  |  |
| KSKVGWAIQLFHKK [BPI.37] | 1,284.00 pmol | 136.7 | 189 | = (no difference in the LAL assay) | b (no detectable activity up to 5 μg/well) | 252.71 | 6.25 | = |  |  |  |  |  |  |  |  |
| KSKVGWLIQLAHKK [BPI.41] | 2,465.40 pmol | 119.1 | 469 | = (no difference in the LAL assay) | b (no detectable activity up to 5 μg/well) | 733.70 | 3.13 |  |  |  |  |  |  |  |  |  |
| KSKAGWLIQLFHKK [BPI.34] | 916.20 pmol | 205.1 | 518 |  | b (no detectable activity up to 5 μg/well) | 319.13 | 6.25 | = | moderate decrease in LPS-binding activity |  |  |  |  |  |  |  |
| ASKVGWLIQLFHKK [BPI.31] | 937.60 pmol | 205.1 | 252 |  | b (no detectable activity up to 5 μg/well) | 426.21 | 6.25 | = | moderate decrease in LPS-binding activity |  |  |  |  |  |  |  |
| KSKVAWLIQLFHKK [BPI.35] | 263.00 pmol | 406.0 | 1080 | = (no difference in the LAL assay) | b (no detectable activity up to 5 μg/well) | 441.79 | 3.13 |  |  | 10 |  |  |  |  |  |  |
| KAKVGWLIQLFHKK [BPI.32] | 613.80 pmol | 217.1 | 340 |  | b (no detectable activity up to 5 μg/well) | 293.62 | 3.13 |  | moderate decrease in LPS-binding activity |  |  |  |  |  |  |  |
| KSAVGWLIQLFHKK [BPI.33] | 575.40 pmol | 230.7 | 492 |  | b (no detectable activity up to 5 μg/well) | 603.44 | 6.25 | = | moderate decrease in LPS-binding activity |  |  |  |  |  |  |  |
| KSKVGALIQLFHKK [BPI.36] | 1,652.00 pmol | 80.2 | 379 |  | b (no detectable activity up to 5 μg/well) | 196.96 | 6.25 | = | large decrease in LPS-binding activity |  | approximately 5 fold |  |  |  |  |  |
| KSKVGWLIQAFHKK [BPI.40] | 1,760.10 pmol | 160.5 | 547 | = (no difference in the LAL assay) | b (no detectable activity up to 5 μg/well) | 253.17 | 3.13 |  | large decrease in LPS-binding activity |  | approximately 5 fold |  |  |  |  |  |
| IKISAKWKAQKRFLK [BPI.19] | 2,187.80 pmol | 203.6 | 266 |  | b (no detectable activity up to 5 μg/well) |  |  |  |  |  |  | =1.0 x Fold | = (no difference in the LAL assay) |  |  |  |
| IKISGKWKAQKRFAK [BPI.27] | 5,754.40 pmol | 119.8 | 204 |  | b (no detectable activity up to 5 μg/well) |  |  |  |  |  |  |  | = (no difference in the LAL assay) |  |  |  |
| AKISGKWKAQKRFLK [BPI.15] | 9,705.10 pmol | 145.4 | 315 |  | b (no detectable activity up to 5 μg/well) |  |  |  |  |  |  |  | = (no difference in the LAL assay) |  |  |  |
| IKISGKWKAQARFLK [BPI.24] | 654.60 pmol | 427.6 | 165 |  | 27,330.00 pmol |  |  |  |  |  |  |  | = (no difference in the LAL assay) | unexpected increase |  |  |
| KSKVGWLIQLFAKK [BPI.42] | 264.80 pmol | 369.1 | 820 | = (no difference in the LAL assay) | 3,731.70 pmol | 548.49 | 6.25 | = |  |  |  |  |  |  | =1.0 x Fold | 1.2 |
| IKISGKWKAQKRALK [BPI.26] | 8,709.60 pmol | 113.1 | 231 |  | b (no detectable activity up to 5 μg/well) |  |  |  |  |  |  |  | = (no difference in the LAL assay) |  |  |  |
